“Also recorded” adds a separate entry of the source.
Experiments:
[1] = system: COLO205; assay: Sensitivity of colon cancer cell lines to AKT1/2 inhibitor (cell killing); type: cell-based, human; conditions: in vitro, grouping is relative
Description: (§1) FIG. 2. Cell lines used as a starting point for signature gene discovery. Nineteen colon cancer cell lines were phenotyped for sensitivity to the AKT1/2 inhibitor L-001154547.
(§2) In order to identify a gene expression signature of growth factor signaling pathway deregulation in human tumors, six colon carcinoma cell lines HCT-8 (ATCC #CCL-244), LoVo (ATCC #CCL-229), COLO205 (ATCC #CLL-222), DLD-1 (ATCC #CCL-221), HCT-116 (ATCC #CCL-247), and HCT-15 (ATCC #CCL-225) were initially expression profiled by microarray to identify genes that are responsive to AKT1/2 small molecule inhibition. The six colon cancer cell lines were treated with either 4 μM AKT1/2 inhibitor L-001154547 ('547; 3-phenyl-2-(4-{[4-(5-pyridin-2-yl-1H-1,2,4-triazol-3-yl)piperidin-1-yl]methyl}phenyl)-1,6-naphthyridin-5(6H)-one; disclosed in WO2006065601) or 4 μM AKT1/2 inhibitor L-01173931 ('931; 6-Methyl-3-phenyl-2-(4-{[4-(5-pyridin-2-yl-1H-1,2,4-triazol-3-yl)piperidin-1-yl]-methyl}phenyl)-1,6-naphthyridin-5(6H)-one; disclosed in WO2006065601) for 6 or 24 hours. Two AKT1/2 inhibitors were used for the profiling experiments as a way to offset any off-target effects of any one compound.
(§3) Discriminant analysis of responders and non-responders using post-dose changes of gene expression was 90% accurate in leave-one-out cross-validation (data not shown). Among these 1,600 genes, we focused on 399 genes that were tightly correlated (r>0.7) with changes in expression of IRS2 across this dataset, a key mediator of growth pathway signaling (FIG. 3B) (Hennessy et al., 2005, Nat. Rev. Drug Discov. 4:988-1004). Note that the sensitivity and resistance phenotypes shown in FIG. 1 are relative, not absolute.

[2] = system: DLD-1; assay: as above; type: cell-based, human; conditions: in vitro, grouping is relative
Description: as §1, §2, §3

[3] = system: HCT-116; assay: as above; type: cell-based, human; conditions: in vitro, grouping is relative
Description: as §1, §2, §3

[4] = system: HCT-15; assay: as above; type: cell-based, human; conditions: in vitro, grouping is relative
Description: as §1, §2, §3

[5] = system: HCT-8; assay: as above; type: cell-based, human; conditions: in vitro, grouping is relative
Description: as §1, §2, §3

[6] = system: LoVo; assay: as above; type: cell-based, human; conditions: in vitro, grouping is relative
Description: as §1, §2, §3

[7] = system: ERBB3; assay: mRNA expression of growth factor receptors after growth factor treatment (microarray); type: cell-based, human; conditions: MCF7 and HT29 cells; 100 ng/ml (heregulin 30 ng/ml)
Protocol: (§4) FIG. 29. Negative feedback induced by growth factors. The data presented represents the effect of each growth factor on the mRNA expression of (A) EGFR, (B) ERBB3, (C) INSR, or (D) a recently published signature of aberrant PTEN activity. The Y-axes represent the log(10) ratio of expression relative to vehicle. […] The X-axes represent the time point after growth factor addition.
(§5) MCF-7 and HT-29 cell lines were seeded in 6-well plates to achieve 40-50% confluence at the time of growth factor addition. Cells were serum starved for 24 hours in 0.2% charcoal stripped serum, and growth factors were added at 100 ng/ml (EGF, IGF, insulin, b-FGF) or 30 ng/ml (heregulin). Concentrations of growth factors were chosen to give maximal activation of growth factor receptors as judged by receptor auto-phosphorylation. Activation of growth factor receptor pathways after growth factor addition was confirmed by Western analysis of phosphorylated MAPK and phosphorylated AKT in a separate plate of cells (data not shown). Cells were harvested at 30 minutes, 2 hours, 6 hours, 18 hours, and 24 hours after growth factor addition. DMSO (vehicle) treated cells were also harvested at each time point. RNA was prepared using RLT lysis reagent Qiagen spin columns according to manufacturer instructions.
(§6) For growth factor and AKT inhibitor treated cells, total RNA was isolated from cell lines and converted to fluorescently labeled cRNA that was hybridized to DNA oligonucleotide microarrays as described previously (Hughes et al., 2001, Nat. Biotechnol. 19:342-347; Marton et al., 1998, Nat. Med. 4:1293-1301). Briefly, 4 μg of total RNA from each treated sample was used to synthesize dsDNA through reverse transcription. cRNA was produced by in vitro transcription and labeled post-synthetically with Cy3 or Cy5. cRNA derived from growth factor or AKT inhibitor treated cells (experimental sample) was hybridized against cRNA derived from vehicle treated samples (reference sample). Two hybridizations were done with each cRNA sample pair using fluorescent dye reversal strategy. For growth factor treated cells, microarrays contained 23,880 probes representing genes or expressed sequence tags (GEO platform GPL2029). For AKT inhibitor treated cells, microarrays contained 23,658 probes representing genes or expressed sequence tags (GEO platform GPL3991). Probe sequences were chosen to maximize gene specificity and minimize the 3′-replication bias inherent in reverse transcription of mRNA. In addition, all microarrays contained approximately 2,000 control probes for quality control purposes. All probes on the microarrays were synthesized in situ with inkjet technology (Agilent Technologies, Palo Alto, Calif.; Hughes et al, 2001, Nat. Biotechnol. 19:342-347). After hybridization, arrays were scanned and fluorescence intensities for each probe were recorded. Ratios of transcript abundance (experimental to control) were obtained following normalization and correction of the array intensity data. Gene expression data was analyzed using Rosetta Resolver gene expression analysis software (version 7.0, Rosetta Biosoftware, Seattle, Wash.) and MATLAB (The MathWorks, Natick, Mass.).
(§7) As such, care should be taken when using mRNA levels of ERBB3 or INSR as a surrogate for activity of signaling through these receptors.

[8] = system: INSR; assay: as above; type: cell-based, human; conditions: MCF7 and HT29 cells; 100 ng/ml (heregulin 30 ng/ml)
Protocol: as §4, §5, §6, §7

[9] = system: growth factor signature; assay: Signature inhibition in the connectivity map dataset; type: cell-based; conditions: for Enrichment / Rank in terms of significance of signature inhibition: Growth Factor Signaling Pathway signature, connectivity map dataset; for Rank in terms of significance of signature inhibition: rank among all compounds; for rank in terms of significance of growth factor signature inhibition: among all compounds in the connectivity map dataset
Description: (§8) To further validate the growth factor signature, we leveraged signatures of drug response from the connectivity map dataset (Lamb et al., 2006, Science 313:1929-1935). This dataset comprises mRNA expression data for 164 distinct small molecules, representing 453 individual compound treatment experiments. These small molecule inhibitors include the PI3K inhibitors wortmannin and LY-294002 and the mTOR inhibitor sirolimus. We surmised that if the growth factor signature truly represents activation of the PI3K pathway, these compounds should have an inhibitory effect on the signature. […] In contrast, other perturbagens in the connectivity map dataset either have no effect, a less significant inhibitory effect, or an activating effect on the growth factor signaling signature. […] For example, while LY-294002 was the top ranked compound in terms of significance of proliferation signature inhibition, sirolimus was ranked fifth, and wortmannin was ranked 23rd (Table 12).

[10] = system: proliferation signature; assay: as above; type: cell-based; conditions: for Enrichment / Rank in terms of significance of signature inhibition: Proliferation signature, connectivity map dataset; for Rank in terms of significance of signature inhibition: rank among all compounds
Description: as §8

[11] = system: MYC signature; assay: as above; type: cell-based; conditions: c-MYC signature; for Rank in terms of significance of signature inhibition: rank among all compounds
[12] = system: growth factor signaling pathway signature; assay: Regulation of the growth factor signaling pathway signature by growth factors and inhibitors; type: cell-based; conditions: HT29 and MCF7 cells; 0.5, 2, 6, 18, or 24 hours
Description: FIG. 9. Inverse regulation of the growth factor signaling pathway signature by growth factors relative to growth factor pathway inhibitors. Genes listed in Table 5 are shown along the Y-axis, and various treatments are listed along the X-axis. The drug treatment/drug targets are listed along the left hand side, and functional groupings are listed along the right hand side. […] From the growth factor compendium, we show data from both colon (HT29) and breast (MCF7) cells treated with heregulin (a growth factor that binds to Erbb family receptors and activates PI3K/AKT signaling). Cells were treated with heregulin for 0.5, 2, 6, 18, or 24 hours.
Because we developed this novel growth factor signaling pathway signature based on regulation by inhibitors of growth factor pathway signaling, we hypothesized that our signature genes would be inversely regulated in vitro by treatments that activate growth factor signaling.

O=c1[nH]ccc2nc(-c3ccc(CN4CCC(c5n[nH]c(-c6ccccn6)n5)CC4)cc3)c(-c3ccccc3)cc12 [L-001154547, 3-phenyl-2-(4-{[4-(5-pyridin-2-yl-1H-1,2,4-triazol-3-yl)piperidin-1-yl]methyl}phenyl)-1,6-naphthyridin-5(6H)-one]
sensitivity to AKT inhibition [1]: more sensitive; also recorded: relatively sensitive | sensitivity to AKT inhibition [2]: more resistance; also recorded: relatively resistant | sensitivity to AKT inhibition [3]: more resistance; also recorded: relatively resistant | sensitivity to AKT inhibition [4]: more resistance; also recorded: relatively resistant | sensitivity to AKT inhibition [5]: more sensitive; also recorded: relatively sensitive | sensitivity to AKT inhibition [6]: more sensitive; also recorded: relatively sensitive

IGF: growth factor added to cells at 100 ng/ml
ERBB3 mRNA expression [7]: significant down-regulation | INSR mRNA expression [8]: significant down-regulation

O=c1cc(N2CCOCC2)oc2c(-c3ccccc3)cccc12 [LY-294002]
Enrichment [9]: −0.748 | Rank in terms of significance of signature inhibition [9]: 3 | rank in terms of significance of growth factor signature inhibition [9]: 3 | Enrichment [10]: −0.527 | Rank in terms of significance of signature inhibition [10]: 1 | Enrichment [11]: −0.602 | Rank in terms of significance of signature inhibition [11]: 2

COC[C@H]1OC(=O)c2coc3c2[C@@]1(C)C1=C(C3=O)[C@@H]2CCC(=O)[C@@]2(C)C[C@H]1OC(C)=O [wortmannin]
Enrichment [9]: −0.776 | Rank in terms of significance of signature inhibition [9]: 2 | rank in terms of significance of growth factor signature inhibition [9]: 2 | Enrichment [10]: −0.387 | Rank in terms of significance of signature inhibition [10]: 23 | rank in terms of significance of proliferation signature inhibition ([10]; among all compounds in the connectivity map dataset): 23 | Enrichment [11]: −0.561 | Rank in terms of significance of signature inhibition [11]: 7

heregulin
ERBB3 mRNA expression [7]: significant down-regulation | INSR mRNA expression [8]: significant down-regulation | regulation of the growth factor signaling pathway signature genes [12]: inverse regulation of the signature genes

b-FGF: growth factor added to cells at 100 ng/ml
ERBB3 mRNA expression [7]: significant down-regulation | INSR mRNA expression [8]: significant down-regulation

insulin: growth factor added to cells at 100 ng/ml
ERBB3 mRNA expression [7]: significant down-regulation | INSR mRNA expression [8]: significant down-regulation

CO[C@H]1C[C@@H]2CC[C@@H](C)[C@@](O)(O2)C(=O)C(=O)N2CCCC[C@H]2C(=O)O[C@H]([C@H](C)C[C@@H]2CC[C@@H](O)[C@H](OC)C2)CC(=O)[C@H](C)/C=C(\C)[C@@H](O)[C@@H](OC)C(=O)[C@H](C)C[C@H](C)/C=C/C=C/C=C/1C [sirolimus]
Enrichment [9]: −0.865 | Rank in terms of significance of signature inhibition [9]: 1 | rank in terms of significance of growth factor signature inhibition [9]: 1 | Enrichment [10]: −0.482 | Rank in terms of significance of signature inhibition [10]: 5 | Enrichment [11]: −0.68 | Rank in terms of significance of signature inhibition [11]: 1
